Assays:
PBMC and pDC = assay: cytokine production by PBMC and plasmacytoid dendritic cells (RT-PCR, ELISA); type: cell-based, human; details: added at 0.02% to 1% at the same time as TLR-7 agonists
Experimental: Cytokine production by plasmacytoid dendritic cells is measured using real-time RT-PCR on RNA collected from peripheral blood mononuclear cells (PBMC) including pDC (plasmacytoid dendritic cells).
An IRM (TLR-7 agonist) as described in one of the four embodiments of the present invention is introduced into a 24-well plate containing PBMC and pDC h Control wells are treated with DMSO. Cells are incubated for either one or two hours at 37° C. At the indicated times the cells are harvested by gently pipeting the cells into a 1.5 mL Eppendorf tube and centrifuging at 400 RCF for 10 min at 4° C. The supernatant is removed from the tube and the cells are lysed with 1 mL TRIzol (Life Technologies). […] RNA is quantified by absorbency (Abs260) and is reverse-transcribed using SuperScript First Strand Synthesis System for RT-PCR (Life Technologies). Primers for quantitative PCR are generated using Primer Express (PE Applied Biosystems). […] Quantitative PCR is performed on an ABI PRISM 7700 Sequence Detector. Amplified products are detected using SYBR Green PCR Master Mix (PE Biosystems). […] Relative quantitation of gene expression was performed using the DDCt method (User Bulletin #2, PE Applied Systems).
Cytokine and chemokine protein levels are measured from tissue culture supernatants or cell extracts using commercially-available enzyme-linked immuno assay (ELISA) kits. […]

aging skin [1] = assay: clinical study, combined day/night treatment with IRM and retinoid (2b); type: in vivo, human; details: day/night application
Experimental: The above study is repeated except that the topical composition containing the IRM is applied in the morning and a topical composition containing tretinoin is applied at night. Standard 2-4 mm skin punch biopsies are taken at pre-identified sites (on subject's arms) on Day 0 and at the Week 12 visit. Subjects apply the assigned formulation in the presence of the investigator and return for a biopsy within 4-6 hours.

aging skin [2] = assay: twelve-week clinical study, combined contemporaneous treatment with IRM and retinoid (2a); type: in vivo, human; details: contemporaneous application
Experimental: On Day 0, each enrolled subject is supplied with a package of individually coded tubes of cream, labeled “Tube A” and “Tube B”. Tube A contains one of two formulations: 5% IRM+vehicle (carrier); or vehicle only (placebo); Tube B contains either 0.025% tretinoin in a cream formulation or vehicle only (placebo). The subjects apply Tube A to the arms and face, wait 5 minutes, and then apply the contents of Tube B over the same area. Labels are randomly assigned with records separately maintained identifying the formulation. Codes are not known to either the subjects or the investigator until the study is completed and the data analyzed. All subjects receive Cetaphil cleanser, moisturizer and sunscreen for daily use throughout the study. The first application of Tube A and B is done in the presence of the study coordinator to ensure proper application. Written directions are given to the subjects to apply the products at the same time of day every day and to apply Tube B five minutes after applying Tube A.
Study participants apply the study creams once daily for 12 weeks. […]
Skin firmness (elasticity) is assessed using a ballistometer. Skin retention of water/skin moisture content is assessed via impedance measurements on the cheek area of subjects using a Novameter. Transepidermal water loss is measured using a Tewameter. Sebum secretion is measured using a Sebometer and Sebutape.

[3] = tested on: normal photodamaged dermal or epidermal tissue; details: topical application; cited from earlier work

CC1=C(/C=C/C(C)=C/C=C/C(C)=C/C(=O)O)C(C)(C)CCC1 [tretinoin, all-trans retinoic acid]
amount of IFN-γ expressed by PBMC cells upon exposure to the TLR-7 agonist (PBMC and pDC): lowers | Irritation (erythema and scaling) (aging skin [1]): at all time points but maximally at the 2 and 4 week time points | TEWL (Tewameter) (aging skin [1]): increased TEWL | Irritation (erythema and scaling) (aging skin [2]): at all time points but maximally at the 2 and 4 week time points | TEWL (Tewameter) (aging skin [2]): increased TEWL

CC(C)Cn1cnc2c(N)nc3ccccc3c21 [Imiquimod, 1-isobutyl-1H-imidazo[4,5,-C]quinolin-4-amine]
time until improved appearance (reduction in the appearance of fine lines and wrinkles) is visible [3]: ≤ 4 weeks

From patent publication US20130330322A1, “Methods of Treating Skin Aging With Toll-Like Receptor 7 Agonists” (Metabeauty, Inc., priority 2012, published 2013)
